Series [1] in a line: Apparent permeability across apical to basolateral side in human Caco2 cells measured at 2 uM incubated for 2 hrs by LC/MS/MS analysis. It counts as ADME, cell-based. The settings on record: Caco-2.
Series [2] can be described thus: Oral bioavailability in Wistar rat at 0.5 to 1 mg/kg measured upto 24 hrs by LC-MS/MS. It counts as ADME, organism-based. The settings on record: in vivo.
Series [3] can be described thus: Inhibition of rat recombinant FLAG-tagged PTGES expressed in baculovirus infected Hi-5 insect cells using prostaglandin H2 as substrate incubated for 20 mins followed by substrate addition and incubated for 60 sec by TR-FRET assay.
Series [4] deals with T1, Prostaglandin E synthase (Mus musculus, UniProt Q9JM51).
T1 sequence (Q9JM51 whole entry): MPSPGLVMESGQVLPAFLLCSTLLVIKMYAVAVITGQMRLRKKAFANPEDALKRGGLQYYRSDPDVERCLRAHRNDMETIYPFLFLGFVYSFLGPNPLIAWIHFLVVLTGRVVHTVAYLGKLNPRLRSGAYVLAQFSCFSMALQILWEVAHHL
The series is described as follows: Inhibition of mouse recombinant FLAG-tagged PTGES expressed in baculovirus infected Hi-5 insect cells using prostaglandin H2 as substrate incubated for 20 mins followed by substrate addition and incubated for 60 sec by TR-FRET assay.

A short description of series [5]: Selectivity ratio of IC50 for mouse recombinant FLAG-tagged PTGES to human recombinant FLAG-tagged PTGES expressed in baculovirus infected Hi-5 insect cells using prostaglandin H2 as substrate preincubated for 20 mins followed by substrate addition and incubated for 60 sec by TR-FRET assay.
The target of series [6] is T2, Prostaglandin E synthase (Homo sapiens, UniProt O14684).
T2 sequence (O14684 whole entry): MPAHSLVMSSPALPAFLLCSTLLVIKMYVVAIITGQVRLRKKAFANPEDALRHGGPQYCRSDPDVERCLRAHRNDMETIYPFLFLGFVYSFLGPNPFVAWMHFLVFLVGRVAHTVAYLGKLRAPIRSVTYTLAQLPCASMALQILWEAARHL
Put plainly: Inhibition of human recombinant FLAG-tagged PTGES expressed in baculovirus infected Hi-5 insect cells using prostaglandin H2 as substrate preincubated for 20 mins followed by substrate addition and incubated for 60 sec by TR-FRET assay.

Series [7] has as its system Mus musculus. The series is described as follows: Antinociceptive activity in C57BL/6 mouse model of complete Freund's adjuvant-induced inflammatory pain assessed as inhibition of PGE2 production at 100 mg/kg, po administered after 2 days of CFA induction and measured after 1 hr by ELISA. It counts as functional, organism-based.
For series [8], the system named is Rattus norvegicus. Put plainly: Antihyperalgesia activity in Sprague-Dawley rat endometriosis model assessed as viscero-motor response at 75 mg/kg, po bid administered for 3 to 5 weeks of post surgery by EMG method. It counts as functional, organism-based.
The test system of series [9] is Rattus norvegicus. The series is described as follows: Antihyperalgesia activity in Sprague-Dawley rat endometriosis model assessed as decrease in proliferation of lesions by measuring expression of Ki67 at 75 mg/kg, po bid administered for 3 to 5 weeks of post surgery by RT-PCR analysis. It counts as functional, organism-based.
A short description of series [10]: Hepatic extraction ratio in Han Wistar rat liver microsomes at 1 uM measured upto 90 mins by LC-MS/MS. It counts as ADME, Microsome. The settings on record: read-out: ERH.
Series [11] is described as follows: Efflux ratio of apparent permeability from basolateral to apical over apical to basolateral side in human Caco2 cells at 2 uM incubated for 2 hrs by LC/MS/MS analysis. It counts as ADME, cell-based. The settings on record: Caco-2.
Series [12] is described as follows: Total blood clearance in Wistar rat blood at 0.5 to 1 mg/kg, […] 0.5 to 10 mg/kg, ig measured upto 24 hrs by LC-MS/MS. It counts as ADME, organism-based. The note with it: whole blood.
Series [13] in a line: Volume of distribution at steady state in Wistar rat blood at 0.5 to 1 mg/kg, […] 0.5 to 10 mg/kg, ig measured upto 24 hrs by LC-MS/MS. It counts as ADME, organism-based. The note with it: in vivo.
The nature of series [14]: Half life in Wistar rat blood at 0.5 to 1 mg/kg, […] 0.5 to 10 mg/kg, ig LC-MS/MS. The settings on record: whole blood. It counts as ADME, organism-based.
Series [15] deals with Mus musculus. The series is described as follows: Antinociceptive activity in C57BL/6 mouse model of complete Freund's adjuvant-induced inflammatory pain assessed as reduction in pain-related behavior at 30 to 100 mg/kg, po administered after 2 days of CFA induction and measured after 1 hr by using Plexiglas chamber. It counts as functional, organism-based.
Series [16] deals with Mus musculus. Put plainly: Antinociceptive activity in C57BL/6 mouse model of complete Freund's adjuvant-induced inflammatory pain assessed as inhibition of PGE2 production at 30 to 100 mg/kg, po administered after 2 days of CFA induction and measured after 1 hr by ELISA. It counts as functional, organism-based.
Series [17] is described as follows: Ratio of unbound drug level in CFA-induced mouse to IC50 for mouse recombinant FLAG-tagged PTGES inhibition. It counts as ADME. The note with it: in vivo.
The subject of series [18] is Rattus norvegicus. The series is described as follows: Antihyperalgesia activity in Sprague-Dawley rat endometriosis model assessed as viscero-motor response at 75 mg/kg, po bid administered for 3 to 5 weeks of post surgery and measured after 1 week by EMG method. It counts as functional, organism-based.

Calls of active or inactive are those of the source. The rule behind the calls is not given here.

In the case of `Cc1c(CCC(=O)O)cccc1NC(=O)[C@@H](c1ccc(-c2cncc(Cl)c2)c(F)c1)C1CCCC1`, the Papp A→B at 2 h, 2 µM in series [1] was 5.9 ×10⁻⁶ cm/s. This molecule came in with a bioavailability in [2] of 72%.

Consider `Cc1c(NC(=O)[C@@H](c2ccc(-c3cncc(Cl)c3)cc2)C2CCCC2)cccc1[C@@H](C)CC(=O)O`, for which the IC50 in series [3] came to 1360 nM; in series [4], 584 nM.

As to `Cc1cncc(-c2ccc(C(C(=O)Nc3cccc(CCC(=O)O)c3C)C3CCCC3)cc2)c1` (stereo not given), the IC50 worked out at 2590 nM in series [3] and 818 nM in series [4].

In the case of `Cc1c(CCC(=O)O)cccc1NC(=O)[C@@H](c1ccc(-c2cncc(C(F)(F)F)c2)cc1)C1CCCC1`, in [1], the Papp A→B at 2 h, 2 µM worked out at 8 ×10⁻⁶ cm/s. In addition, the bioavailability in series [2] amounted to 73%.

Turning to `Cc1ccc(-c2ccc(C(C(=O)Nc3cccc(CCC(=O)O)c3C)C3CCCC3)cc2)cn1` (stereo not given), in series [5], the Ratio IC50 stood at 5.

As to `O=C(O)CCc1cccc(NC(=O)C(c2ccc(-c3cncc(Cl)c3)cc2)C2CCCC2)c1OC(F)(F)F` (stereo not given), the IC50 in series [6] was more than 20000 nM.

Turning to `Cc1c(CCc2nnn[nH]2)cccc1NC(=O)C(c1ccc(-c2cncc(Cl)c2)cc1)C1CCCC1` (stereo not given), the IC50 in [6] was determined as 152 nM.

For the molecule `Cc1c(CCC(=O)O)cccc1N(C)C(=O)C(c1ccc(-c2cncc(Cl)c2)cc1)C1CCCC1` (stereo not given), the IC50 in series [6] was more than 20000 nM.

For the molecule `CC(C)Cc1ccc(C(C)C(=O)O)cc1` (stereo not given), in series [7], the result was Active.

As to `Cc1c(CCC(=O)O)cccc1NC(=O)C(c1ccc(-c2ccccn2)cc1)C1CCCC1` (stereo not given), the half-maximal inhibitory concentration (IC50) in series [6] was more than 20000 nM.

As for `Cc1c(CCC(=O)O)cccc1NC(=O)[C@@H](c1ccc(-c2cccnc2)cc1)C1CCCC1`, the Papp A→B at 2 h, 2 µM in series [1] was found to be 3.6 ×10⁻⁶ cm/s.

In the case of `Cc1c(CCC(=O)O)cccc1NC(=O)C(c1ccc(-c2ccncc2)cc1)C1CCCC1` (stereo not given), the IC50 in series [6] is 9260 nM.

Take `Cc1c(CCC(=O)O)cccc1NC(=O)C(c1cccc(-c2cccnc2)c1)C1CCCC1` (stereo not given): the IC50 in [6] was more than 20000 nM.

Take `Cc1c(CCC(=O)O)cccc1NC(=O)C(c1ccc(-c2cncc(Cl)c2)cn1)C1CCCC1` (stereo not given): the IC50 in series [6] stood at 2330 nM.

`Cc1c(CCC(=O)O)cccc1NC(=O)[C@@H](c1ccc(-c2cncc(Cl)c2)cc1)C1CCCC1`: the result in series [8], in series [9], in series [15], in [16] and in series [18] was Active. The hepatic extraction ratio at […], 1 µM in [10] worked out at 0.02. In addition, the Papp A→B at 2 h, 2 µM in series [1] was found to be 6.9 ×10⁻⁶ cm/s. For the same molecule, the efflux ratio at 2 h, 2 µM in series [11] stood at 2.9. Further, the bioavailability in series [2] is 98%. The IC50 was 1270 nM in series [3] and 765 nM in series [4]. This molecule also gave a CL/F in [12] of 5 mL/min/kg. The Vdss in series [13] came to 0.9 L/kg. In series [14], this molecule gave a half-life of 4.3 h. Moreover, the Ratio in [17] worked out at 3.

`Cc1c(NC(=O)[C@H](c2ccc(-c3cncc(Cl)c3)cc2)C2CCCC2)cccc1[C@H](C)CC(=O)O`: the results for the IC50 in series [3] and in series [4] were 8460 nM and 3080 nM, respectively.

With `Cc1c(NC(=O)[C@@H](c2ccc(-c3cncc(Cl)c3)cc2)C2CCCC2)cccc1[C@H](C)CC(=O)O`, the half-inhibitory concentration (IC50) in series [3] amounted to 895 nM; in series [4] it was 339 nM.

`O=C(O)CCc1ccc(NC(=O)C(c2ccc(-c3cncc(Cl)c3)cc2)C2CCCC2)cc1` (stereo not given): in series [6], the IC50 was more than 20000 nM.

Regarding `Cc1c(CCC(=O)O)cccc1C(=O)NC(c1ccc(-c2cncc(Cl)c2)cc1)C1CCCC1` (stereo not given), the IC50 in series [6] is more than 20000 nM.

With `Cc1c(CCC(=O)O)cccc1NC(=O)C(c1ccc(-c2cncc(CC(C)C)c2)cc1)C1CCCC1` (stereo not given), in [4], the IC50 is 191 nM.

For the molecule `Cc1c(CCC(=O)O)cccc1NC(=O)C(c1ccccc1)c1ccc(-c2cncc(Cl)c2)cc1` (stereo not given), in [6], the IC50 worked out at 4490 nM.

As to `Cc1c(CCC(=O)O)cccc1NC(=O)C(c1cccc(-c2ccccc2)c1)C1CCCC1` (stereo not given), in series [6], the IC50 turned out to be 5860 nM.

With `Cc1c(CCC(=O)O)cccc1NC(=O)C(c1ccc(-c2cccc(Cl)c2)cc1)C1CCCC1` (stereo not given), the IC50 in series [6] worked out at 276 nM.

For `Cc1ncccc1-c1ccc(C(C(=O)Nc2cccc(CCC(=O)O)c2C)C2CCCC2)cc1` (stereo not given), the IC50 in series [6] is more than 20000 nM.

In the case of `Cc1c(NC(=O)[C@H](c2ccc(-c3cncc(Cl)c3)cc2)C2CCCC2)cccc1[C@@H](C)CC(=O)O`, the IC50 worked out at 17700 nM in series [3] and 12600 nM in [4].

On to `Cc1c(NC(=O)[C@@H](c2ccc(-c3cncc(Cl)c3)cc2)C2CCCC2)cccc1OCC(=O)O`, for which the Papp A→B at 2 h, 2 µM in [1] was 0.22 ×10⁻⁶ cm/s. The bioavailability in [2] was 8%.

On to `CC[C@@H](CC(=O)O)c1cccc(NC(=O)C(c2ccc(-c3cncc(CC(C)C)c3)cc2)C2CCCC2)c1C` (stereo not given in full), for which the IC50 was found to be 162 nM in series [3] and 84 nM in [4].

`CCc1cncc(-c2ccc(C(C(=O)Nc3cccc([C@@H](CC)CC(=O)O)c3C)C3CCCC3)cc2)c1` (stereo not given in full): the hepatic extraction ratio at […], 1 µM in [10] was 0.44. In addition, the results for the IC50 in [3] and in series [4] were 190 nM and 203 nM, respectively.

Turning to `Cc1c(CCC(=O)O)cccc1NC(=O)C(c1ccc(-c2cncc(Cl)c2)nc1)C1CCCC1` (stereo not given), in series [6], the IC50 is 327 nM.

As for `Cc1c(CCC(=O)O)cccc1NC(=O)C(c1ccc(-c2cncc(Cl)c2)cc1)C1CCN(C)C1=O` (stereo not given), the IC50 in [6] was more than 20000 nM.

The record behind these values is ChEMBL document CHEMBL4346755, “Discovery and optimization of pyridyl-cycloalkyl-carboxylic acids as inhibitors of microsomal prostaglandin E synthase-1 for the treatment of endometriosis” (Bioorg Med Chem Lett, 2019).
